The source of these data is article PMC11562788, “Insights into the Hierarchical Assembly of a Chemically Diverse Peptide Hydrogel Derived from Human Semenogelin I” (ACS Nano, 2024).

Data set [1] in a line: SAXS/WAXS of fibrils, elliptical cylinder model fit. Format: physicochemical. Particulars: for Fibril axis ratio / Fibril cross-sectional area / Fibril minor radius (minor semiaxis): SAXS, elliptical cylinder model fit, day 7 at 21 °C. How it is done:
Small- and wide-angle X-ray scattering (SAXS/WAXS) measurements were performed on a SAXSLabs Ganesha pinhole instrument (JJ X-ray System Aps) with an X-ray microsource (Xenocs) and a two-dimensional 300k Pilatus detector (Dectris Ltd., Switzerland). The wavelength, λ, used for all scattering experiments was 1.54 Å, and samples were measured at three sample-to-detector distances. All samples (200 μL) were loaded into a 1.5 mm diameter quartz capillary (Hilgenberg GmbH, Malsfeld, Germany), and the time-averaged scattering intensities were analyzed using a python code. The scattering intensity was corrected to an absolute scale by calibration against water. Supramolecular dimensions were extracted from SAXS data by using the SasView software and fitting the scattering curves to an elliptical-cylinder model (www.sasview.org).

A short description of data set [2]: FTIR amide I: β-sheet self-assembly. Type of data set: physicochemical. The conditions noted are these: D2O, ambient temperature; for Persistence of the β-sheet structure over time by FTIR: 0 h to 1 week or longer, pH as in the words; for β-Sheet secondary structure (self-assembly) by FTIR amide I: pD 8.0, 2.0 mM (P7, P8 and F40FCN 1.0 mM). How it is done: (§1) All samples were prepared in nonstick Eppendorf tubes (Axygen, Inc.). Prior to the final sample preparation (for all FTIR samples and when otherwise stated), the TFA counteranions present in the peptide sample after HPLC purification were exchanged for chloride using the following protocol: lyophilized peptide was dissolved in deionized D2O (1.0 mL). HCl was added at a molar ratio of 13.7:1 HCl:peptide. For the Phe^CN mutants, the sample was divided into two groups and lyophilized. One sample was then redissolved in H2O (to avoid obscuring the O–D stretches in the nitrile region) and the other in D2O (to avoid overlapping of the O-H bending vibrations in the amide I region) to a final concentration of 2.0 mM, unless otherwise specified. All other peptide samples were redissolved in D2O. The exchange of TFA^– to chloride may be verified by a lack of signal at 1672 cm^–1, seen in the IR spectrum for the deuterium-exchanged TFA salt of P3, where the carbonyl signal from TFA is well separated from the amide I carbonyl high frequency stretch at 1684 cm^–1 (Figure S1). On the day of the peptide sample preparation, D2O was placed in an Eppendorf tube, was then used as background when collecting data points (0 h, 48 h, 1 week, etc.), and was assumed to absorb the same amount of H2O over time as the peptide sample prepared on the same day. The concentration of the peptide solutions was verified with the UV–vis absorbance peak at 280 nm using a molar absorptivity of 2560 M^–1 cm^–1 for all sequences (P0–P7). The pH/pD of the samples was then corrected to 8.0 using small volumes of NaOH and HCl (or NaOD and DCl). After attaining the desired pH/pD, samples were incubated at ambient temperature (ca. 22 °C) and followed over 7 days (or as specified) to allow for hydrogelation.
FT IR was performed with a Bruker Vertex 70 spectrometer with a photovoltaic mercury cadmium telluride (MTC) detector. Before the spectral collection, the MCT detector was cooled with liquid nitrogen. A background spectrum (see hydrogel sample preparation above) was collected (6 μL of H2O or D2O), and the collection chamber was purged for 15 min before 6 μL of sample was loaded in between two CaF2 windows and separated by a 50-μm Teflon spacer in a 25-mm diameter demountable liquid cell (Harrick Scientific). After purging again, the IR spectrum was collected with 512 scans, with a resolution of 2 cm^–1, from 900 cm^–1 to 4000 cm^–1 at time t = 0 h, 24 h, 48 h, and 1 week (and sometimes longer) after sample constitution, processed using OPUS spectroscopy software, and plotted with Origin or KaleidaGraph.

Data set [3] in a line: Hydrogelation and gel appearance by visual inspection. The conditions noted are these: for Colloidal stability / phase separation of the hydrogel: visual inspection after hydrogel preparation, pH/pD 8.0, 2.0 mM, ambient temperature; for Hydrogel formation: visual inspection, peptide in water/D2O, pH/pD 8.0, 2.0 mM (P7 1.0 mM), ambient temperature ca. 22 °C, up to 7 days. Format: physicochemical. On the procedure:
All FTIR measurements were collected on samples where a trifluoroacetate (TFA^–) to chloride ion exchange was performed to eliminate signals from the TFA^– carbonyl moiety in the amide I spectral region (Figure S1). FTIR spectra were collected for P0–P5 in D2O at six pD values (3.0, 5.0, 7.0, 8.0, 9.0, and 10.0) (Figures S2–S7). FTIR analysis for P6–P8 was performed at a pD of 8.0 (Figures S8–S10). The bulk of FTIR studies were performed at pD 8.0, as the optimum pH range for hydrogelation is 7–9 for both SgI38–48[28] and P0.
as §1

The nature of data set [4]: Cryo-TEM of fibril formation and morphology. Format: physicochemical. On the procedure: Images were obtained at the National Center for High Resolution Electron Microscopy within Lund University on a JEOL JEM-2200 transmission electron microscopy instrument using a TVIPS F416 camera with an accelerator voltage of 200 kV. […] Grids were glow-discharged prior to sample preparation. Image processing was performed on the open-source software ImageJ (https://imagej.nih.gov) with the FIJI processing package.

The nature of another data set: Solubility in water. The conditions noted are these: for Solubility in water (in words): P7 and P8 not tested above 1.0 mM at pH 8. Type of data set: physicochemical.
The conditions of data set [5]: cited from earlier work. An excerpt:
The present study targets a relatively complex 13-residue peptide for which we attempt to uncover the underlying chemical principles behind hydrogelation and correlations between sequence, structure, and bulk mechanical properties. The peptide is derived from the human protein semenogelin I (SgI), which is the main proteinaceous constituent in seminal plasma. SgI is also present in nonreproductive tissues including skeletal muscles, the trachea, and the gastrointestinal tract.[35] We previously reported that a short fragment of SgI forms a pH-responsive gel, similar in properties to the full-l ... || All FTIR measurements were collected on samples where a trifluoroacetate (TFA^–) to chloride ion exchange was performed to eliminate signals from the TFA^– carbonyl moiety in the amide I spectral region (Figure S1). FTIR spectra were collected for P0–P5 in D2O at six pD values (3.0, 5.0, 7.0, 8.0, 9.0, and 10.0) (Figures S2–S7). FTIR analysis for P6–P8 was performed at a pD of 8.0 (Figures S8–S10). The bulk of FTIR studies were performed at pD 8.0, as the optimum pH range for hydrogelati ...

[6] abbreviates: after 7 days of incubation at 21 °C.

As usually defined, the solubility is how much of the substance goes into solution per volume.

≈ marks a conversion by molar mass, not a printed value. Where “and” joins values, the source holds several entries; their conditions need not be identical. Equal values may be shown once. Entries after “also recorded” stand apart in the source; their conditions may differ. Residues, ends and D or L forms follow the SMILES beside them.

Take `CC[C@H](C)[C@H](NC(=O)[C@H](CO)NC(=O)[C@H](Cc1ccccc1)NC(=O)[C@H](CO)NC(=O)CNC(C)=O)C(=O)N[C@@H](CCC(N)=O)C(=O)N[C@@H](Cc1ccc(O)cc1)C(=O)N[C@H](C(=O)N[C@@H](Cc1ccc(O)cc1)C(=O)N[C@@H](Cc1c[nH]cn1)C(=O)N[C@H](C(=O)N[C@@H](CC(=O)O)C(N)=O)C(C)C)[C@@H](C)O` [P1] (Ac-GSFSIQYTYHVD-NH2): in data set [1] (2.0 mM, pH 8.0), the Fibril axis ratio was determined as 2.5, the Fibril cross-sectional area was 17.7 nm^2 and the “Fibril minor radius (minor semiaxis)” value was found to be 1.5 nm. Besides, in data set [2], the “Persistence of the β-sheet structure over time by FTIR” value was “is lost over time”. Further, the “Gel robustness as noticed in handling” value in data set [3] (pD 8.0 hydrogels) was “less stable gel than P0, P2 and P3”.

As to `CC[C@H](C)[C@H](NC(=O)[C@H](CO)NC(C)=O)C(=O)N[C@@H](CCC(N)=O)C(=O)N[C@@H](Cc1ccc(O)cc1)C(=O)N[C@H](C(=O)N[C@@H](Cc1ccc(O)cc1)C(=O)N[C@@H](Cc1c[nH]cn1)C(=O)N[C@H](C(=O)N[C@@H](CC(=O)O)C(N)=O)C(C)C)[C@@H](C)O` [P4] (Ac-SIQYTYHVD-NH2), in data set [1] (2.0 mM, pH 8.0), the Fibril axis ratio stood at 2.1; the Fibril cross-sectional area was 59.4 nm^2; the “Fibril minor radius (minor semiaxis)” value was 3.0 nm and 3 nm. In addition, in data set [1] (WAXS, q = 1.3 Å^–1 (P0–P3) or 1.05 Å^–1 (P4–P6), 2.0 mM, pH 8.0, 21 °C), the “Periodic repeat distance from WAXS peak” value is on record as 6.0 Å. For the same compound, the “Repeat distance of sharp SAXS peak at q = 0.305 Å^–1” value (from here on “Repeat distance of sharp SAXS peak”) in data set [1] (setting [6]) worked out at 2.1 nm. In data set [2], the “Persistence of the β-sheet structure over time by FTIR” value is listed as “sheet structure is lost within 1 week”. Further, in data set [3], the “Colloidal stability / phase separation of the hydrogel” value is “colloidally unstable and undergoes phase separation”.

For the compound `CC[C@H](C)[C@H](NC(C)=O)C(=O)N[C@@H](CCC(N)=O)C(=O)N[C@@H](Cc1ccc(O)cc1)C(=O)N[C@H](C(=O)N[C@@H](Cc1ccc(O)cc1)C(=O)N[C@@H](Cc1c[nH]cn1)C(=O)N[C@H](C(=O)N[C@@H](CC(=O)O)C(N)=O)C(C)C)[C@@H](C)O` [P5] (Ac-IQYTYHVD-NH2), in data set [1] (2.0 mM, pH 8.0), the Fibril axis ratio is on record as 1.9, the Fibril cross-sectional area was found to be 65.0 nm^2 and the “Fibril minor radius (minor semiaxis)” value was 3.3 nm. Also, the “Repeat distance of sharp SAXS peak” value in data set [1] (after 1 day of incubation at 21 °C) stood at 2.1 nm. The “Colloidal stability / phase separation of the hydrogel” value in data set [3] was “colloidally unstable and undergoes phase separation”. For the same compound, in data set [4] (after 7 days of incubation at 21 °C, bundle of approximately 5 fibrils), the “Diameter of fibril bundle (cryo-TEM)” value is listed as roughly 10 nm.

In the case of `CC(=O)N[C@@H](CCC(N)=O)C(=O)N[C@@H](Cc1ccc(O)cc1)C(=O)N[C@H](C(=O)N[C@@H](Cc1ccc(O)cc1)C(=O)N[C@@H](Cc1c[nH]cn1)C(=O)N[C@H](C(=O)N[C@@H](CC(=O)O)C(N)=O)C(C)C)[C@@H](C)O` [P6] (Ac-QYTYHVD-NH2), in data set [1] (2.0 mM, pH 8.0), the Fibril axis ratio is 1.9, the Fibril cross-sectional area was 57.4 nm^2 and the “Fibril minor radius (minor semiaxis)” value came out at 3.1 nm. Also, in data set [1] (setting [6]), the “Repeat distance of sharp SAXS peak” value came out at 2.1 nm. In data set [3], the “Colloidal stability / phase separation of the hydrogel” value is “colloidally unstable and undergoes phase separation”; the Hydrogel formation entry is given as “forms a hydrogel”.

Consider `CC(=O)N[C@@H](Cc1ccc(O)cc1)C(=O)N[C@H](C(=O)N[C@@H](Cc1ccc(O)cc1)C(=O)N[C@@H](Cc1c[nH]cn1)C(=O)N[C@H](C(=O)N[C@@H](CC(=O)O)C(N)=O)C(C)C)[C@@H](C)O` [P7] (Ac-YTYHVD-NH2), for which, in data set [1] (2.0 mM P0–P6, 1.0 mM P7, 7 days at 21 °C, pH 8.0), the “Fibril formation by SAXS scattering” value is listed as “no significant scattering is observed”. The “β-Sheet secondary structure (self-assembly) by FTIR amide I” value in data set [2] is “no sign of a β-sheet secondary structure; also recorded: unstructured”. In addition, the Hydrogel formation result in data set [3] is recorded as “inability of P7 to form a hydrogel”. The “Presence of fibrils (cryo-TEM)” value in data set [4] (pH 8.0 water, 2.0 mM (P7 1.0 mM), incubation at 21 °C) is “contains no fibrils”. The “Solubility in water (in words)” value in the data set “Solubility in water” is recorded as “low solubility”. Besides, in “Solubility in water” (pH 8.0, read-out: Solubility limit in water), the solubility worked out at 1000 µM (≈ 838 µg/mL).

As to `CC(=O)N[C@H](C(=O)N[C@@H](Cc1ccc(O)cc1)C(=O)N[C@@H](Cc1c[nH]cn1)C(=O)N[C@H](C(=O)N[C@@H](CC(=O)O)C(N)=O)C(C)C)[C@@H](C)O` [P8] (Ac-TYHVD-NH2), the “β-Sheet secondary structure (self-assembly) by FTIR amide I” value in data set [2] was “no sign of a β-sheet secondary structure; also recorded: unstructured”. In addition, the “Solubility in water (in words)” value in “Solubility in water” is listed as “low solubility”.

In the case of `CC[C@H](C)[C@H](NC(=O)[C@H](CO)NC(=O)[C@H](Cc1ccccc1)NC(=O)[C@H](CO)NC(=O)CNC(C)=O)C(=O)N[C@@H](CCC(N)=O)C(=O)N[C@@H](Cc1ccc(O)cc1)C(=O)N[C@H](C(=O)N[C@@H](Cc1ccc(O)cc1)C(=O)N[C@@H](Cc1c[nH]cn1)C(=O)N[C@H](C(N)=O)C(C)C)[C@@H](C)O` [SgI38–48, AcNH–GSFSIQYTYHV–CONH2] (Ac-GSFSIQYTYHV-NH2), the “Solubility in water (in words)” value in “Solubility in water” was “limited solubility in water”. In data set [5], the “Optimum pH range for hydrogelation” value was 7–9. In addition, the “Concentration at which the peptide self-assembles into a hydrogel network” value in data set [5] (physiological conditions) was 0.5 % w/v.
